Assay results published in article PMC3978507, “Fusion of a Short HA2-Derived Peptide Sequence to Cell-Penetrating Peptides Improves Cytosolic Uptake, but Enhances Cytotoxic Activity” (Pharmaceuticals, 2009).
Positions of bridges follow the written chain, without caps; N, C: chain ends. Residues, ends and D or L forms follow the SMILES beside them. Chains are numbered I, II in the order given.

Assays:
HeLa cells [1] = experiment: Resazurin-based cell viability assay; set-up: species or system human; conditions: 24 h incubation, up to 100 µM peptide
Protocol: (§1) We used the following cell lines: HEK 293 (human embryonal kidney), HeLa (human cervix carcinoma), MCF-7 (human breast adenocarcinoma), HT-29 (human colon adenocarcinoma), K-562 (human chronic myeloid leukemia) and Jurkat (human T cell leukemia). All cells were cultured in 75 cm^2 culture flasks at 37 °C and 5% CO2 in a humidified atmosphere and split when confluent. For HEK 293 cells Dulbecco’s Modified Eagle Medium/ Ham’s F12 (without L-glutamine) containing 15% heat-inactivated foetal calf serum was used. HeLa and Jurkat cells were grown in supplemented RPMI 1640 (with L-glutamine) with 10% heat-inactivated foetal calf serum, MCF-7 cells in Dulbecco’s Modified Eagle Medium/ Ham’s F12 (without L-glutamine) containing 10% heat-inactivated foetal calf serum and 1% glutamine, and HT-29 and K-562 cells in Dulbecco’s Modified Eagle Medium supplemented with 10% heat-inactivated foetal calf serum. Detachment and dissociation of confluent cells was done by Trp/EDTA (0.05%/0.02% in PBS). For microscopic studies cells were seeded in glass-bottomed 8-well plates, whereas cells for cell viability and flow cytometric studies were cultured in 96-well plates.

HeLa cells [2] = experiment: Flow cytometric studies of peptide uptake; format: cell-based, human; conditions: for uptake of chimeric peptide versus parent CPP: CF-labelled, 10 min, several peptide concentrations, flow cytometry
Protocol: Finally, cells were diluted with cold HBSS and inspected.

MCF-7 cells = experiment: MTT cell viability assay; format: cell-based, human; conditions: 24 h, 1-100 µM peptide
Protocol: as §1

HT-29 cells = experiment: MTT cell viability assay; format: cell-based, human; conditions: 24 h, 1-100 µM peptide
Protocol: as §1

K562 cells = experiment: Flow cytometric analysis of cell viability (FDA/PI staining); format: cell-based, human; conditions: flow cytometry FDA/PI, 24 h, 1-50 µM peptide
Protocol: as §1
(§2) Untreated cells were used as negative control.

Jurkat cells = experiment: as above; format: cell-based, human; conditions: flow cytometry FDA/PI, 24 h, 1-50 µM peptide
Protocol: as §1, §2

[3] = system: several cell lines (MCF-7, HT-29, HEK293, K562, Jurkat); conditions: for cytotoxicity, several cell lines: several cell lines (MCF-7, HT-29, HEK293, K562, Jurkat), concentrations of up to 100 µM
Protocol: The effect of the peptides on the viability of HT-29 and MCF-7 cells was checked by using the MTT-assay. Therefore, cells were cultivated to subconfluency under standard conditions in 96-well plates. The treatment was performed with 1-100 µM of the peptides for 24 h. Then, 10-fold stock solution of MTT reagent (5 mg/mL in medium) was added to each sample, and the cells were incubated for further 2 h. Formazan crystals were solubilised with 200 µL DMSO per well. After incubation for 15 min at 400 rpm and RT, absorbance was measured with a Tecan Saphire plate reader (560 nm, reference filter 630 nm).
The viability after peptide treatment (1-50 µM peptide solutions) for 24 h of the suspension cell lines Jurkat and K562 was tested by using flow cytometry. For this purpose, 2.5 × 10^5 cells per sample were stained with fluorescein diacetate (FDA) (0.04 µg/100 µL cell suspension) and propidium iodide (PI) (25 µg/100 µL cell suspension) in FACS buffer (1% BSA in PBS). Samples were incubated for 15 min at RT in the dark, washed and resuspended in FACS buffer.
Viability of the stained cells was analysed using a FACS®Calibur and CellQuest Pro analysis software (both Becton Dickinson, Franklin Lakes, USA) and is represented as relative cell number of viable cells. Untreated cells were used as negative control. Excitation and emission settings were 488 nm and 525–550 nm for FDA and 488 nm and 564–606 nm for PI staining.

K562 erythrocytes = conditions: cited from earlier work
Source text: (§3) Therefore, we further elucidated the cytotoxicity profiles of the chimeric peptides for several cell lines (including MCF-7, HeLa and HT-29 cells, as well as suspension cell lines K562 and Jurkat).

[4] = system: MDA-MB-231 breast cancer cells; conditions: cited from earlier work
Source text: as §3

Row | Molecule | IC50 (HeLa cells [1]) [µM] | uptake of chimeric peptide versus parent CPP (HeLa cells [2]) | IC50 (MCF-7 cells) [µM] | IC50 (HT-29 cells) [µM] | IC50 (K562 cells) [µM] | IC50 (Jurkat cells) [µM] | cytotoxicity, several cell lines [3] | cellular translocation of the peptide alone (HeLa cells [2]; CF-labelled analogue, 60 min, several concentrations, fluorescence microscopy and flow cytometry) | cytotoxic effects, all tested cell lines ([3]; all tested cell lines, data not shown) | haemolytic effect (K562 erythrocytes) | membrane toxicity [4]
1 | CC(C)C[C@H](NC(=O)CN)C(=O)N[C@@H](CC(C)C)C(=O)N[C@@H](CCC(=O)O)C(=O)N[C@@H](C)C(=O)N[C@@H](CC(C)C)C(=O)N[C@@H](C)C(=O)N[C@@H](CCC(=O)O)C(=O)N[C@@H](CC(C)C)C(=O)N[C@@H](CC(C)C)C(=O)N[C@@H](CCC(=O)O)C(=O)NCC(=O)N[C@@H](CCCNC(=N)N)C(=O)N[C@@H](CCCCN)C(=O)N[C@@H](CCCCN)C(=O)N[C@@H](CCCNC(=N)N)C(=O)N[C@@H](CCCNC(=N)N)C(=O)N[C@@H](CCC(N)=O)C(=O)N[C@@H](CCCNC(=N)N)C(=O)N[C@@H](CCCNC(=N)N)C(=O)N[C@@H](CCCNC(=N)N)C(=O)N1CCC[C@H]1C(=O)N1CCC[C@H]1C(=O)N[C@@H](CCC(N)=O)C(N)=O [N-E5L-Tat(48-60)] (H-GLLEALAELLEGRKKRRQRRRPPQ-NH2) | 29.4 ± 3.9 | higher uptake values | 39.3 ± 9.4 | 90.9 ± 0.2 | > 30 | 7.9 ± 0.8 |  |  |  |  | 
2 | CC[C@H](C)[C@H](NC(=O)[C@H](C)NC(=O)[C@@H](NC(=O)[C@H](CCC(N)=O)NC(=O)[C@@H]1CCCN1C(=O)[C@H](Cc1ccccc1)NC(=O)[C@@H](NC(=O)[C@H](Cc1c[nH]cn1)NC(=O)[C@H](Cc1ccccc1)NC(=O)[C@H](CCCCNC(=O)[C@H](C)NC(=O)[C@H](Cc1ccccc1)NC(=O)[C@H](CCCCN)NC(=O)[C@H](CCCNC(=N)N)NC(=O)[C@H](CCCCN)NC(=O)[C@H](CCCCN)NC(=O)[C@H](CCCCN)NC(=O)[C@@H]1CCCN1C(=O)[C@H](C)NC(=O)[C@H](CCCCN)NC(=O)[C@H](CCCNC(=N)N)NC(=O)[C@H](CCCCN)NC(=O)[C@@H](N)CCCCN)NC(=O)[C@H](CCC(=O)O)NC(=O)[C@H](CC(C)C)NC(=O)[C@H](CC(C)C)NC(=O)[C@H](CCC(=O)O)NC(=O)[C@H](C)NC(=O)[C@H](CC(C)C)NC(=O)[C@H](C)NC(=O)[C@H](CCC(=O)O)NC(=O)[C@H](CC(C)C)NC(=O)[C@H](CC(C)C)NC(=O)CN)[C@@H](C)O)[C@@H](C)O)C(=O)NCC(=O)N[C@H](C(=O)NCC(=O)N[C@@H](C)C(=O)N1CCC[C@H]1C(N)=O)C(C)C [N-E5L-hCT(18-32)-k7] (I: H-GLLEALAELLEKFHTFPQTAIGVGAP-NH2 / II: H-KKRKAPKKKRKFA; amide I:12-II:C; N-terminus assumed) | 33.1 ± 3.3 | higher uptake values | 37.8 ± 6.5 | 59.1 ± 0.1 | > 30 | 11.4 ± 4.2 |  |  |  |  | 
3 | CC[C@H](C)[C@H](NC(=O)[C@H](CCCCN)NC(=O)[C@H](CC(N)=O)NC(=O)[C@H](CCCNC(=N)N)NC(=O)[C@H](Cc1ccccc1)NC(=O)[C@H](CCCCN)NC(=O)[C@H](CCCNC(=N)N)NC(=O)[C@H](CC(C)C)NC(=O)[C@H](CCCNC(=N)N)NC(=O)[C@H](CCCCN)NC(=O)[C@H](CCCNC(=N)N)NC(=O)[C@H](CC(C)C)NC(=O)CNC(=O)[C@H](CCC(=O)O)NC(=O)[C@H](CC(C)C)NC(=O)[C@H](CC(C)C)NC(=O)[C@H](CCC(=O)O)NC(=O)[C@H](C)NC(=O)[C@H](CC(C)C)NC(=O)[C@H](C)NC(=O)[C@H](CCC(=O)O)NC(=O)[C@H](CC(C)C)NC(=O)[C@H](CC(C)C)NC(=O)CN)C(=O)N[C@@H](CCCCN)C(=O)N[C@@H](CCC(=O)O)C(=O)N[C@@H](CCCCN)C(N)=O [N-E5L-sC18] (H-GLLEALAELLEGLRKRLRKFRNKIKEK-NH2) | 31.8 ± 1.9 | higher uptake values | 30.8 ± 4.1 | 72.1 ± 0.1 | > 30 | 7.3 ± 1.7 |  |  |  |  | 
4 | GLLEALAELLE [N-E5L, truncated, modified E5L-peptide; analogue of the HA fusion-peptide from the N-terminal region of the HA2 subunit] |  |  |  |  |  |  | no cytotoxicity was observed | unable to translocate in cells |  |  | 
5 | GLRKRLRKFRNKIKEK [sC18] |  |  |  |  |  |  | no cytotoxicity was observed |  |  |  | 
6 | GRKKRRQRRRPPQ [Tat(48-60)] |  |  |  |  |  |  |  |  | no cytotoxic effects | no haemolytic effect | no membrane toxicity
